In ChEMBL document CHEMBL1201862, “PubChem BioAssay data set” (2004):
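Briefly, cells in 96-well plates were exposed to five compound concentrations for 48 h, and endpoints were estimated by linear interpolation. Here, GI50 denotes the concentration required for 50% inhibition of growth.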 Activity calls are given as the source filed them. Rule as the data show it: active = GI50 up to about 1.1 µM and inactive = higher.

Experiments:
Assay in all cases: NCI anticancer screen, dose series, 48 h
MDA-N = system: MDA-N
HCC 2998 = system: HCC 2998
Malme-3M = system: Malme-3M
HCT-116 = system: HCT-116
OVCAR-8 = system: OVCAR-8
OVCAR-4 = system: OVCAR-4
IGROV-1 = system: IGROV-1
RPMI-8226 = system: RPMI-8226
OVCAR-3 = system: OVCAR-3
LOX IMVI = system: LOX IMVI
CAKI-1 = system: CAKI-1
M14 = system: M14
SN12C = system: SN12C
NCI/ADR-RES = system: NCI/ADR-RES
SF-539 = system: SF-539
SW-620 = system: SW-620
PC-3 = system: PC-3
BT-549 = system: BT-549
UACC-62 = system: UACC-62
OVCAR-5 = system: OVCAR-5

| SMILES | GI50 (MDA-N) | GI50 (HCC 2998) | GI50 (Malme-3M) | GI50 (HCT-116) | GI50 (OVCAR-8) | GI50 (OVCAR-4) | GI50 (IGROV-1) | GI50 (RPMI-8226) | GI50 (OVCAR-3) | GI50 (LOX IMVI) | GI50 (CAKI-1) | GI50 (M14) | GI50 (SN12C) | GI50 (NCI/ADR-RES) | GI50 (SF-539) | GI50 (SW-620) | GI50 (PC-3) | GI50 (BT-549) | GI50 (UACC-62) | GI50 (OVCAR-5) |
| --- | --- | --- | --- | --- | --- | --- | --- | --- | --- | --- | --- | --- | --- | --- | --- | --- | --- | --- | --- | --- |
| CC(=O)Oc1c2c(c(CC=C(C)C)c3c1C(=O)C1=C[C@@H]4CC5C(C)(C)OC(C/C=C(/C)C(=O)O)(C4=O)[C@@]15O3)OC(C)(CCC=C(C)C)C=C2 (stereo not given in full) | 0.16 µM (active) | 0.61 µM (active) | 0.29 µM (active) | 0.149 µM (active) | 0.184 µM (active) | 0.177 µM (active) | 0.0998 µM (active) | 0.184 µM (active) | 0.308 µM (active) | 0.104 µM (active) | 0.174 µM (active) | 0.282 µM (active) | 0.181 µM (active) | 0.525 µM (active) | 0.0986 µM (active) | 0.091 µM (active) | 0.244 µM (active) | 0.205 µM (active) | 0.282 µM (active) | 0.361 µM (active) |
| C/C(CC(O)(C(F)(F)F)C(F)(F)F)=N\N | > 10 µM (inactive) | > 10 µM (inactive) | > 10 µM (inactive) | > 10 µM (inactive) | > 10 µM (inactive) | > 10 µM (inactive) | > 10 µM (inactive) | > 10 µM (inactive) | > 10 µM (inactive) | > 10 µM (inactive) | > 10 µM (inactive) | > 10 µM (inactive) | > 10 µM (inactive) | > 10 µM (inactive) | > 10 µM (inactive) | > 10 µM (inactive) | > 10 µM (inactive) | > 10 µM (inactive) | > 10 µM (inactive) | > 10 µM (inactive) |
| Cc1ccc(NC(=O)CC(=O)N2N=C(N(C)c3ccccc3)CC2c2ccccc2)cc1 (stereo not given) | > 100 µM (inactive) | > 100 µM (inactive) | > 100 µM (inactive) | > 100 µM (inactive) | 58.7 µM (inactive) | 68.5 µM (inactive) | > 100 µM (inactive) | > 100 µM (inactive) | > 100 µM (inactive) | > 100 µM (inactive) | > 100 µM (inactive) | > 100 µM (inactive) | > 100 µM (inactive) | > 100 µM (inactive) | > 100 µM (inactive) | > 100 µM (inactive) | > 100 µM (inactive) | > 100 µM (inactive) | > 100 µM (inactive) | > 100 µM (inactive) |
| COc1ccc2nc3cc(Cl)ccc3c(NCCCN(C)CCCNc3ccc4ncn5c6ccccc6c(=O)c3c45)c2c1 | 0.0817 µM (active) | 0.0103 µM (active) | 2.69 µM (inactive) | 0.0025 µM (active) | 0.163 µM (active) | 0.0897 µM (active) | 0.0374 µM (active) | 0.0656 µM (active) | 1.57 µM (inactive) | 0.116 µM (active) | 0.184 µM (active) | 0.558 µM (active) | 0.0302 µM (active) | 1.26 µM (inactive) | 0.0861 µM (active) | 0.00573 µM (active) | 0.547 µM (active) | 0.0822 µM (active) | 1.92 µM (inactive) | 3.09 µM (inactive) |
| O=C(Cc1ccccc1F)NC1=C(Cl)C(=O)c2ccccc2C1=O | 2.78 µM (inactive) | 3.48 µM (inactive) | 1.35 µM (inactive) | 0.459 µM (active) | 2.16 µM (inactive) | 0.659 µM (active) | 1.46 µM (inactive) | 0.436 µM (active) | 0.621 µM (active) | 1.75 µM (inactive) | 2.79 µM (inactive) | 0.802 µM (active) | 3.18 µM (inactive) | 1.95 µM (inactive) | 0.333 µM (active) | 0.721 µM (active) | 1.25 µM (inactive) | 1.36 µM (inactive) | 0.481 µM (active) | 4.08 µM (inactive) |
| COc1cc2ccc(=O)oc2cc1O [SCOPOLETIN] | > 100 µM (inactive) | 98.4 µM (inactive) | 156 µM (inactive) | 56.4 µM (inactive) | 52.1 µM (inactive) | 101 µM (inactive) | 69.3 µM (inactive) | 46.1 µM (inactive) | 69.8 µM (inactive) | 61.9 µM (inactive) | 119 µM (inactive) | > 100 µM (inactive) | 51.4 µM (inactive) | 56.2 µM (inactive) | 53.3 µM (inactive) | 67.3 µM (inactive) | > 100 µM (inactive) | > 100 µM (inactive) | 71.3 µM (inactive) | 156 µM (inactive) |
